These results are taken from ChEMBL document CHEMBL3228010, “Potential antitumor agents. 29. Quantitative structure-activity relationships for the antileukemic bisquaternary ammonium heterocycles” (J Med Chem, 1979).

One data set deals with Mus musculus. The data set is described as follows: Toxicity in ip dosed C3H X DBA2 F1 hybrid mouse […] with mouse L1210 cells on day 0 and dosed once daily on days 1 to 5 measured after 50 days. To be noted: in vivo, 1200 h. Type of data set: organism-based.
Data set [1] deals with L1210. Briefly: Antitumor activity against mouse L1210 cells […] in ip dosed C3H X DBA2 F1 hybrid mouse on day 0 and dosed at LD10 level once daily on days 1 to 5 assessed as increase in life span relative to control. Type of data set: functional.
Data set [2] relates to L1210. The data set is described as follows: Antitumor activity against mouse L1210 cells […] in ip dosed C3H X DBA2 F1 hybrid mouse on day 0 and dosed once daily on days 1 to 5 assessed as increase in life span relative to control. Type of data set: functional.
Data set [3] is described as follows: Lipophilic-hydrophilic balance, Rm of the compound by partition chromatography. Type of data set: physicochemical.

For the compound `CC[n+]1ccc(-c2ccc(-c3ccc(-c4ccc(NC(=O)c5ccc(C(=O)Nc6ccc(-c7ccc(-c8ccc(-c9cc[n+](CC)cc9)cc8)cc7)cc6)cc5)cc4)cc3)cc2)cc1.Cc1ccc(S(=O)(=O)[O-])cc1.Cc1ccc(S(=O)(=O)[O-])cc1`, in the data set on Mus musculus, the LD10 was determined as 14 mg/kg. Further, the “log(ILSmax)” value in the data set on L1210 [1] is reported as 2.23. The D40 in the data set with L1210 [2] was determined as 1.2 mg/kg. In addition, in data set [3], the Rm came to 0.09.
The matching figures for `C[n+]1ccc(Nc2ccc(NC(=O)c3ccc(C(=O)Nc4ccc(C(=O)Nc5ccc[n+](C)c5)cc4)cc3)cc2)cc1.Cc1ccc(S(=O)(=O)[O-])cc1.Cc1ccc(S(=O)(=O)[O-])cc1`: 9 mg/kg, 2.03, 0.8 mg/kg and 0.07.
The matching figures for `CCC[n+]1cccc2cc(NC(=O)c3ccc(C(=O)Nc4ccc5c(ccc[n+]5CCC)c4)cc3)ccc21.Cc1ccc(S(=O)(=O)[O-])cc1.Cc1ccc(S(=O)(=O)[O-])cc1`: 21 mg/kg, 1.89, 15 mg/kg and 0.3.
In the same order, the values of `CCC[n+]1ccc(Nc2ccc(NC(=O)/C=C/c3ccc(/C=C/C(=O)Nc4ccc(Nc5cc[n+](CCC)cc5)cc4)cc3)cc2)cc1.[Br-].[Br-]` are 25 mg/kg, 1.85, 13 mg/kg and 0.46.
Consider `CC[n+]1ccc(Nc2ccc(NC(=O)c3ccc(Nc4cc[n+](CC)c5ccccc45)cc3N)cc2)cc1.[I-].[I-]`, for which the LD10 in the data set with Mus musculus was determined as 53 mg/kg. In the data set on L1210 [1], the “log(ILSmax)” value is recorded as 1.95. Moreover, the D40 with L1210 [2] amounted to 11.9 mg/kg. In data set [3], this compound had a Rm of 0.65.
The matching figures for `CC[n+]1cccc2cc(NC(=O)/C=C/c3ccc(C(=O)Nc4ccc5c(ccc[n+]5CC)c4)cc3)ccc21.Cc1ccc(S(=O)(=O)[O-])cc1.Cc1ccc(S(=O)(=O)[O-])cc1`: 9 mg/kg, 1.7, 5 mg/kg and 0.11.
In the case of `CC[n+]1cccc2cc(NC(=O)COc3ccc(C(=O)Nc4ccc5c(ccc[n+]5CC)c4)cc3)ccc21.Cc1ccc(S(=O)(=O)[O-])cc1.Cc1ccc(S(=O)(=O)[O-])cc1`, in the data set on Mus musculus, the LD10 amounted to 4 mg/kg. In addition, the “log(ILSmax)” value in the data set with L1210 [1] amounted to 1.4. In the data set on L1210 [2], the D40 is 4 mg/kg. In addition, the Rm in data set [3] is reported as -0.11.
`CCC[n+]1cccc2cc(NC(=O)c3ccc(C(=O)Nc4ccc(NC(=O)c5ccc6c(ccc[n+]6CCC)c5)cc4)cc3)ccc21.Cc1ccc(S(=O)(=O)[O-])cc1.Cc1ccc(S(=O)(=O)[O-])cc1` gave an LD10 in the data set on Mus musculus of 80 mg/kg. Moreover, the “log(ILSmax)” value in the data set on L1210 [1] amounted to 2.08. Further, the D40 with L1210 [2] is 60 mg/kg. The compound also returned a Rm in data set [3] of 0.
On to `CC[n+]1ccc(Nc2ccc(NC(=O)c3ccc(Nc4cc[n+](CC)c5ccc(N)cc45)cc3)cc2N)cc1.[I-].[I-]`, for which, in the data set on Mus musculus, the LD10 was 6.5 mg/kg. The “log(ILSmax)” value in the data set on L1210 [1] stood at 2.1. Moreover, the D40 in the data set with L1210 [2] came out at 1.5 mg/kg. The Rm in data set [3] is reported as 0.15.
In the same order, the values of `C[n+]1ccc(Nc2ccc(NC(=O)c3ccc(Nc4cc[n+](C)c5cc(N)ccc45)cc3N)cc2)cc1.[Br-].[Br-]` are 20 mg/kg, 2.45, 1.2 mg/kg and -0.12.
In the same order, the values of `CCCC[n+]1cccc2cc(NC(=O)/C=C/c3ccc(C(=O)Nc4ccc5c(ccc[n+]5CCCC)c4)cc3)ccc21.Cc1ccc(S(=O)(=O)[O-])cc1.Cc1ccc(S(=O)(=O)[O-])cc1` are 25 mg/kg, 1.4, 25 mg/kg and 0.9.
Turning to `CCC[n+]1cccc2cc(NC(=O)/C=C/c3ccc(C(=O)Nc4ccc5c(ccc[n+]5CCC)c4)cc3)ccc21.Cc1ccc(S(=O)(=O)[O-])cc1.Cc1ccc(S(=O)(=O)[O-])cc1`, in the data set with Mus musculus, the LD10 came out at 20 mg/kg. For the same compound, the “log(ILSmax)” value with L1210 [1] is reported as 2. Further, the D40 with L1210 [2] was 4.3 mg/kg. This compound yielded a Rm in data set [3] of 0.5.
The matching figures for `CCC[n+]1cc(-c2ccc(NC(=O)c3ccc(C(=O)Nc4ccc(-c5c[n+](CCC)c(N)nc5N)cc4)cc3)cc2)c(N)nc1N.Cc1ccc(S(=O)(=O)[O-])cc1.Cc1ccc(S(=O)(=O)[O-])cc1`: 50 mg/kg, 2.15, 7 mg/kg and -0.08.
The matching figures for `CC[n+]1ccc(Nc2ccc(C(=O)Nc3ccc(Nc4cc[n+](CC)c5ccc(N)cc45)cc3)cc2)cc1.[I-].[I-]`: 9 mg/kg, 2.23, 0.7 mg/kg and 0.19.
The matching figures for `CCC[n+]1ccc(Nc2ccc(NC(=O)c3ccc(Nc4cc[n+](CCC)c5ccc(N)cc45)cc3)cc2N)cc1.[I-].[I-]`: 10 mg/kg, 1.95, 3.6 mg/kg and 0.41.
`CCCC[n+]1cccc(NC(=O)c2ccc(NC(=O)/C=C/c3ccc(C(=O)Nc4ccc(C(=O)Nc5ccc[n+](CCCC)c5)cc4)cc3)cc2)c1.Cc1ccc(S(=O)(=O)[O-])cc1.Cc1ccc(S(=O)(=O)[O-])cc1` yielded an LD10 with Mus musculus of 24 mg/kg. The “log(ILSmax)” value in the data set with L1210 [1] is on record as 1.72. Moreover, the D40 in the data set with L1210 [2] is 14 mg/kg. This compound gave a Rm in data set [3] of 0.4.
The matching figures for `CC[n+]1cccc(NC(=O)c2ccc(NC(=O)C34CCC(C(=O)Nc5ccc(C(=O)Nc6ccc[n+](CC)c6)cc5)(CC3)CC4)cc2)c1.Cc1ccc(S(=O)(=O)[O-])cc1.Cc1ccc(S(=O)(=O)[O-])cc1`: 27 mg/kg, 1.65, 18 mg/kg and 0.59.
In the same order, the values of `CC[n+]1cc(-c2ccc(NC(=O)/C=C/c3ccc(C(=O)Nc4ccc(-c5c[n+](CC)c(N)nc5N)cc4)cc3)cc2)c(N)nc1N.Cc1ccc(S(=O)(=O)[O-])cc1.Cc1ccc(S(=O)(=O)[O-])cc1` are 27 mg/kg, 2.23, 5.1 mg/kg and -0.35.
`CC[n+]1ccc(Nc2ccc(C(=O)Nc3ccc(/C(C)=N/NC(=N)N)cc3)c(N)c2)c2cc(N)ccc21.Cc1ccc(S(=O)(=O)O)cc1.Cc1ccc(S(=O)(=O)[O-])cc1` returned an LD10 in the data set with Mus musculus of 50 mg/kg. In addition, the “log(ILSmax)” value in the data set on L1210 [1] turned out to be 2.32. Besides, in the data set on L1210 [2], the D40 amounted to 6 mg/kg. For the same compound, the Rm in data set [3] is reported as -0.2.
The matching figures for `CCCCC[n+]1cccc2cc(NC(=O)c3ccc(C(=O)Nc4ccc5c(ccc[n+]5CCCCC)c4)cc3)ccc21.Cc1ccc(S(=O)(=O)[O-])cc1.Cc1ccc(S(=O)(=O)[O-])cc1`: 57 mg/kg, 1.62, 55 mg/kg and 0.92.
In the same order, the values of `CC[n+]1cccc(NC(=O)c2ccc(NC(=O)/C=C/c3ccc(C(=O)Nc4ccc(C(=O)Nc5ccc[n+](CC)c5)cc4)cc3)cc2)c1.Cc1ccc(S(=O)(=O)[O-])cc1.Cc1ccc(S(=O)(=O)[O-])cc1` are 55 mg/kg, 1.88, 22 mg/kg and -0.58.
Turning to `C[n+]1ccc(Nc2ccc(NC(=O)c3ccc(Nc4cc[n+](C)c5ccccc45)cc3N)cc2)cc1.[I-].[I-]`, in the data set on Mus musculus, the LD10 came out at 29 mg/kg. The “log(ILSmax)” value in the data set with L1210 [1] is 2.18. Further, the D40 in the data set on L1210 [2] came out at 1.1 mg/kg. This compound also gave a Rm in data set [3] of 0.24.
As for `CCCC[n+]1cccc2cc(NC(=O)c3ccc(C(=O)Nc4ccc5c(ccc[n+]5CCCC)c4)cc3)ccc21.Cc1ccc(S(=O)(=O)[O-])cc1.Cc1ccc(S(=O)(=O)[O-])cc1`, the LD10 in the data set with Mus musculus is 59 mg/kg. For the same compound, in the data set on L1210 [1], the “log(ILSmax)” value turned out to be 2.04. Besides, in the data set with L1210 [2], the D40 stood at 25 mg/kg. Besides, the Rm in data set [3] was determined as 0.67.
In the same order, the values of `CC[n+]1cccc(NC(=O)c2ccc(NC(=O)c3ccc(C(=O)Nc4ccc(C(=O)Nc5ccc[n+](CC)c5)cc4)c(N)c3)cc2)c1.Cc1ccc(S(=O)(=O)[O-])cc1.Cc1ccc(S(=O)(=O)[O-])cc1` are 14 mg/kg, 2.13, 2.4 mg/kg and -0.15.
Consider `CC[n+]1cccc2ccc(NC(=O)c3ccc(NC(=O)c4ccc(C(=O)Nc5ccc6ccc[n+](CC)c6c5)cc4)cc3)cc21.Cc1ccc(S(=O)(=O)[O-])cc1.Cc1ccc(S(=O)(=O)[O-])cc1`, for which, in the data set on Mus musculus, the LD10 is 30 mg/kg. Also, in the data set with L1210 [1], the “log(ILSmax)” value worked out at 2. Also, the D40 in the data set with L1210 [2] was found to be 12 mg/kg. For the same compound, the Rm in data set [3] is -0.4.
For the compound `CCC[n+]1ccc(Nc2ccc(NC(=O)c3ccc(Nc4cc[n+](CCC)c5ccc(N)cc45)cc3N)cc2)cc1.[I-].[I-]`, the LD10 in the data set on Mus musculus was 20 mg/kg. Besides, the “log(ILSmax)” value in the data set with L1210 [1] was determined as 2.03. Moreover, in the data set with L1210 [2], the D40 is 5.9 mg/kg. In data set [3], this compound registered a Rm of 0.52.
As to `CCC[n+]1cccc2cc(NC(=O)c3ccc(NC(=O)c4ccc(C(=O)Nc5ccc6c(ccc[n+]6CCC)c5)cc4)cc3)ccc21.Cc1ccc(S(=O)(=O)[O-])cc1.Cc1ccc(S(=O)(=O)[O-])cc1`, in the data set with Mus musculus, the LD10 amounted to 95 mg/kg. The “log(ILSmax)” value in the data set with L1210 [1] is 1.92. In the data set on L1210 [2], the D40 amounted to 38 mg/kg. For the same compound, the Rm in data set [3] was -0.21.
As to `CCCC[n+]1cccc2cc(NC(=O)c3ccc(C(=O)Nc4ccc5c(ccc[n+]5CCCC)c4)nc3)ccc21.Cc1ccc(S(=O)(=O)[O-])cc1.Cc1ccc(S(=O)(=O)[O-])cc1`, in the data set with Mus musculus, the LD10 is 175 mg/kg. In the data set on L1210 [1], the “log(ILSmax)” value is reported as 1.87. Besides, the D40 with L1210 [2] came out at 120 mg/kg. Moreover, in data set [3], the Rm stood at 0.31.
